Laboratory results from patent US20220332764A1, “T CELL EPITOPES OF HCMV AND USES OF THEREOF” (EBERHARD KARLS UNIVERSITÄT TÜBINGEN, priority 2019, published 2022).
Read-outs that look alike come from different tables or passages of the source.

Legend:
[1] = tested on: HLA; conditions: Table 2, preferred dominant epitopes
[2] = tested on: PBMCs of healthy HCMV-seropositive donors; test: ex vivo IFNγ ELISpot without prestimulation; assay type: cell-based, human; conditions: for % Positive donors (ex vivo): IFNγ ELISpot ex vivo, donors previously tested positive; for ELISpot response rate (ex vivo): donors positively tested in ELISpots with 12d stimulation
From the text: (§1) PHA was used as positive control.

[3] = tested on: PBMCs of healthy HCMV-seropositive donors; test: IFNγ ELISpot after 12 day stimulation (memory T-cell response); assay type: cell-based, human; conditions: for % Positive donors (after 12 days of stimulation): IFNγ ELISpot, HLA-matched seropositive donors; for ELISpot response rate (12 d stim.): 12-day amplification with IL-2 in vitro; for Positive donors as tested: positive / tested HLA-matched seropositive donors, positive: >10 spots/well and at least 3-fold negative control
From the text: as §1

[4] = tested on: CD8+ / CD4+ T cells of donor PBMCs; test: Intracellular cytokine staining (ICS; IFNγ, TNFα, CD107a); assay type: cell-based, human; conditions: for Intracellular cytokine staining: responding T-cell subset after peptide stimulation
From the text: PHA was used as positive control. […] (Cytofix/Cytoperm, BD Biosciences).

[5] = tested on: CD8+ T cells of HLA-matched healthy donors; conditions: for Tetramer-staining: after 12 day amplification

GLFAVENFL (listed as Human cytomegalovirus) [SEQ ID NO: 4]
actual HLA restriction [1]: Class II | % Positive donors (ex vivo) [2]: 0.0% | ELISpot response rate (ex vivo) ([2]; Tested HLA A*02:01): 0.0 | % Positive donors (after 12 days of stimulation) [3]: 53.9% | ELISpot response rate (12 d stim.) ([3]; Tested HLA A*02:01): 53.9 | Positive donors as tested [3]: 7/13 | Intracellular staining ([4]; Tested HLA A*02:01, responding T-cell subset): CD4 | Intracellular cytokine staining [4]: CD4

YLVRRPMTI (listed as Human cytomegalovirus) [SEQ ID NO: 80]
Tetramer staining ([5]; Tested HLA B*08:01): positive | Tetramer-staining [5]: Positive | % Positive donors (ex vivo) [2]: 33.3% | ELISpot response rate (ex vivo) ([2]; Tested HLA B*08:01): 33.3 | % Positive donors (after 12 days of stimulation) [3]: 50.0% | ELISpot response rate (12 d stim.) ([3]; Tested HLA B*08:01): 50.0 | Positive donors as tested [3]: 11/22 | Intracellular cytokine staining [4]: Nega-

YPRPPGSGL (listed as Human cytomegalovirus) [SEQ ID NO: 24]
Tetramer staining ([5]; Tested HLA B*07:02): positive | Tetramer-staining [5]: Positive | % Positive donors (ex vivo) [2]: 25.0% | ELISpot response rate (ex vivo) ([2]; Tested HLA B*07:02): 25.0 | % Positive donors (after 12 days of stimulation) [3]: 86.4% | ELISpot response rate (12 d stim.) ([3]; Tested HLA B*07:02): 86.4 | Positive donors as tested [3]: 19/22 | Intracellular cytokine staining [4]: Nega-
